Converted amounts (≈) assume the structure as drawn.
Tests used:
[1] = Cytotoxicity against human BC cells by colorimetric method; assay type: functional, cell-based
[2] = system: KB; assay: Cytotoxicity against human KB cells by colorimetric method; assay type: functional, cell-based

| Compound | IC50 [1] | IC50 [2] |
| --- | --- | --- |
| Cc1c2ccncc2c(C)c2c1[nH]c1ccccc12 [ELLIPTECINE] | 0.14 µg/mL (≈ 0.568 µM) | 0.21 µg/mL (≈ 0.853 µM) |
| C/C=C(\C)c1cc(O)c(C)c2c1Oc1c(C=O)c(O)cc(/C(C)=C/C)c1C(=O)O2 | 4.1 µg/mL (≈ 10.4 µM) | 6.5 µg/mL (≈ 16.5 µM) |
| C/C=C(\C)c1cc(O)c(C)c2c1Oc1c(COC)c(O)cc(/C(C)=C/C)c1C(=O)O2 | > 5 µg/mL | > 5 µg/mL |
| C/C=C(\C)c1cc(O)c(C)c2c1Oc1c(CO)c(O)cc(/C(C)=C/C)c1C(=O)O2 | > 5 µg/mL | > 5 µg/mL |
| COc1cccc2c1C(=O)c1c(O)c3c(c(O)c1C2=O)C[C@@](O)(C(=O)CO)C[C@@H]3O[C@H]1C[C@H](N)[C@H](O)[C@H](C)O1 [DOXORUBICIN] | 0.17 µg/mL (≈ 0.313 µM) | – |
| C/C=C(\C)c1cc(OC)c(C)c2c1Oc1c(CO)c(O)cc(/C(C)=C/C(=O)O)c1C(=O)O2 [AURANTICIN A] | > 5 µg/mL | > 5 µg/mL |

Reference: ChEMBL document CHEMBL1158064, “Depsidones from the endophytic fungus BCC 8616” (J Nat Prod, 2006)
